Laboratory results as given in PubChem BioAssay (NCI).
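GI50 = concentration required for 50% inhibition of growth. At the TGI there is no net growth.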

Assays:
Assay in all cases: growth of human tumour cells (NCI), 384-well format
[1] = test system: NCI-H226 lung
[2] = test system: NCI-H23 lung
[3] = test system: NCI-H322M lung
[4] = test system: NCI-H460 NSCLC
[5] = test system: NCI-H522 lung
[6] = test system: NCI/ADR-RES ovarian
[7] = test system: OVCAR-3 ovarian
[8] = test system: OVCAR-4 ovarian
[9] = test system: OVCAR-8 ovarian
[10] = test system: PC-3 prostate
[11] = test system: RPMI-8226 leukemia
[12] = test system: RXF 393 renal
[13] = test system: SF-268 CNS
[14] = test system: SF-295 CNS
[15] = test system: SF-539 CNS
[16] = test system: SK-MEL-28 melanoma
[17] = test system: SK-MEL-5 melanoma
[18] = test system: SK-OV-3 ovarian
[19] = test system: SN12C renal
[20] = test system: SNB-19 CNS
[21] = test system: SNB-75 CNS
[22] = test system: SR leukemia
[23] = test system: SW-620 colon
[24] = test system: T-47D breast
[25] = test system: TK-10 renal
[26] = test system: U251 glioblastoma
[27] = test system: UACC-257 melanoma
[28] = test system: UACC-62 melanoma
[29] = test system: UO-31 renal

SMILES: NC1CCC(N[C@@H]2C[C@H]2c2ccccc2)CC1 (stereo partly drawn)
- GI50 [1]: > 100 µM
- TGI [1]: > 100 µM
- GI50 [2]: 71.2 µM
- TGI [2]: > 100 µM
- GI50 [3]: 86.4 µM
- TGI [3]: > 100 µM
- GI50 [4]: 77 µM
- TGI [4]: > 100 µM
- GI50 [5]: 94.1 µM
- TGI [5]: > 100 µM
- GI50 [6]: > 100 µM
- TGI [6]: > 100 µM
- GI50 [7]: 25 µM
- TGI [7]: > 100 µM
- GI50 [8]: > 100 µM
- TGI [8]: > 100 µM
- GI50 [9]: 49.4 µM
- TGI [9]: > 100 µM
- GI50 [10]: 64.7 µM
- TGI [10]: > 100 µM
- GI50 [11]: 41.5 µM
- TGI [11]: > 100 µM
- GI50 [12]: 32.1 µM
- TGI [12]: > 100 µM
- GI50 [13]: 76.2 µM
- TGI [13]: > 100 µM
- GI50 [14]: > 100 µM
- TGI [14]: > 100 µM
- GI50 [15]: 23.4 µM
- TGI [15]: 64.1 µM
- GI50 [16]: 32.2 µM
- TGI [16]: > 100 µM
- GI50 [17]: 41.4 µM
- TGI [17]: > 100 µM
- GI50 [18]: > 100 µM
- TGI [18]: > 100 µM
- GI50 [19]: > 100 µM
- TGI [19]: > 100 µM
- GI50 [20]: > 100 µM
- TGI [20]: > 100 µM
- GI50 [21]: > 100 µM
- TGI [21]: > 100 µM
- GI50 [22]: 6.76 µM
- TGI [22]: 18.6 µM
- GI50 [23]: > 100 µM
- TGI [23]: > 100 µM
- GI50 [24]: > 100 µM
- TGI [24]: > 100 µM
- GI50 [25]: > 100 µM
- TGI [25]: > 100 µM
- GI50 [26]: 44.4 µM
- TGI [26]: > 100 µM
- GI50 [27]: 17.5 µM
- TGI [27]: 33.1 µM
- GI50 [28]: 19.4 µM
- TGI [28]: 38.2 µM
- GI50 [29]: 32.5 µM
- TGI [29]: > 100 µM
